In brackets after ≈: the same amount, converted by molar mass. Structures can show the parent of a compound that is named as a salt. Where two headings read alike, the source gives them in different places.
Assays:
[1] = Thermodynamic solubility measurement in FaSSIF pH 6.5 and SGF pH 1.6; format: physicochemical; conditions: 37 °C, thermodynamic from solid
[2] = Caco-2 apparent passive permeability; format: in vitro ADME; conditions: human, Caco-2, pH 7.4
[3] = cited from earlier work
[4] = cited from earlier work; for AUC fed/fasted ratio / Cmax fed/fasted ratio: erlotinib 150 mg
[5] = after oral administration; cited from earlier work
[6] = Dose-exposure proportionality in dose-escalating studies; format: in vivo, human; conditions: based on data of ref 20
[7] = ref 36 (dabrafenib), 40 (vemurafenib), 18 (pazopanib); cited from earlier work
[8] = BCS II/IV drugs; cited from earlier work
[9] = SGF, pH 1.6, simulated gastric fluid
[10] = single dose, crizotinib 50-300, trametinib 0.125-10, dabrafenib 12-300, gefitinib 50-500 (HV), vemurafenib 240-960, pazopanib 50-2,000 mg

solubility at 24 h ([1]; FaSSIF, pH 6.5, fassif) [µg/mL] | solubility at 24 h [1, 9] [µg/mL] | Papp [2] [×10⁻⁶ cm/s] | Structure (SMILES) | Increase in exposure (dose-exposure proportionality) [3, 10] | further results
12.4 | 166 | 40.4 | C#Cc1cccc(Nc2ncnc3cc(OCCOC)c(OCCOC)cc23)c1 [Erlotinib, erlotinib HCl] |  | Increase in exposure (dose-exposure proportionality) ([3]; dosing schedule N.A., imatinib 25-1,000 mg, erlotinib 100-1,000 mg): Dose proportional38; AUC fed/fasted ratio ([4]; first value (first period)): 1.97; Cmax fed/fasted ratio ([4]; first value (first period)): 1.57; AUC fed/fasted ratio ([4]; second value (second period)): 0.93; Cmax fed/fasted ratio ([4]; second value (second period)): 1.15; dose as parent drug in the feces [5]: 1 % of the dose
35 | 5.5 | 0.21 | CS(=O)(=O)CCNCc1ccc(-c2ccc3ncnc(Nc4ccc(OCc5cccc(F)c5)c(Cl)c4)c3c2)o1 [Lapatinib, lapatinib ditosylate monohydrate] |  | 
743 (≈ 1650 µM) |  | 15.3 | C[C@@H](Oc1cc(-c2cnn(C3CCNCC3)c2)cnc1N)c1c(Cl)ccc(F)c1Cl [Crizotinib] | Less than proportional | dose proportionality of single-dose PK in the authors' assessment [6]: linear
1.2 | 1080 | 28.5 | Cc1ccc(Nc2nccc(N(C)c3ccc4c(C)n(C)nc4c3)n2)cc1S(N)(=O)=O [Pazopanib, pazopanib hydrochloride (HCl)] | Less than proportional Less than proportional18 | pKa values (acidic) [7]: 10.218
 |  | 15.4 | CC(=O)Nc1cccc(-n2c(=O)n(C3CC3)c(=O)c3c(Nc4ccc(I)cc4F)n(C)c(=O)c(C)c32)c1 [Trametinib, trametinib *DMSO solvate] | More than proportional (Cmax proportional)24 | food effect ([4]; poorly water-soluble anticancer drugs): only a modest food effect, if any
88.7 (≈ 198 µM) |  | 10.4 | COc1cc2ncnc(Nc3ccc(F)c(Cl)c3)c2cc1OCCCN1CCOCC1 [Gefitinib, gefitinib] | Dose proportional | 
3.7 | 11.7 | 12.4 | CC(C)(C)c1nc(-c2cccc(NS(=O)(=O)c3c(F)cccc3F)c2F)c(-c2ccnc(N)n2)s1 [Dabrafenib, Dabrafenib mesylate] | Dose proportional | 
5.4 (≈ 11 µM) | 0.3 (≈ 0.612 µM) | 0.11 | CCCS(=O)(=O)Nc1ccc(F)c(C(=O)c2c[nH]c3ncc(-c4ccc(Cl)cc4)cc23)c1F [Vemurafenib, vemurafenib] | Dose proportional Dose proportional40 | 
 |  |  | O=C1NC(=O)C(c2ccccc2)(c2ccccc2)N1 [phenytoin] |  | absolute bioavailability (F) [8]: > 90%

— article PMC7158207 (Clinical Pharmacology and Therapeutics, 2019)
